Molecular target: T1, Cholecystokinin receptor type A (Homo sapiens, UniProt P32238)
T1 sequence (P32238 whole entry): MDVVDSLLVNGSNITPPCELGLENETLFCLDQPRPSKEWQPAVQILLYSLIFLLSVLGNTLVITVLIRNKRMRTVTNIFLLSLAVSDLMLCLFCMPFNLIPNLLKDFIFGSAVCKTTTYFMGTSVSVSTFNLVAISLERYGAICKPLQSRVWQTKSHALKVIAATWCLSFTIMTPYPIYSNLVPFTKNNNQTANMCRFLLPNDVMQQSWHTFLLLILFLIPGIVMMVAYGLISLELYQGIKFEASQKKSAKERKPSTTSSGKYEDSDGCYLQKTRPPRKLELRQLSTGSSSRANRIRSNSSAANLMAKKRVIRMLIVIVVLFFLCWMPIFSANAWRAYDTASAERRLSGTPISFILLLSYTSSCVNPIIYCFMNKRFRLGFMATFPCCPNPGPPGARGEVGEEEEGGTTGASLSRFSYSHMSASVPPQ
Experiment: Displacement of [125I]CCK8-SO3 from human CCK1 receptor expressed in HEK293 cells

`CCCC[C@@H](NC(=O)[C@H](Cc1c[nH]c2ccccc12)NC(=O)OC(C)(C)C)C(=O)N[C@H](CC(=O)O)C(=O)N[C@H](Cc1ccccc1)C(=O)NNC(=O)[C@H](Cc1ccccc1)NC(=O)CNC(=O)[C@@H](C)NC(=O)[C@@H](N)Cc1ccc(O)cc1` [H-Tyr-D-Ala-Gly-Phe-NH-NH-D-Phe-D-Asp-D-Nle-Trp-Boc] and `CCCC[C@H](NC(=O)[C@H](CC(=O)O)NC(=O)[C@@H](N)Cc1ccccc1)C(=O)N[C@H](Cc1c[nH]c2ccccc12)C(=O)NNC(=O)[C@H](Cc1ccccc1)NC(=O)CNC(=O)[C@@H](C)NC(=O)[C@@H](N)Cc1ccc(O)cc1` [H-Tyr-D-Ala-Gly-Phe-NH-NH-D-Trp-Nle-Asp-Phe-H] are within 1.5-fold of each other in IC50: 5.05 nM for the first, 5.15 nM for the second.

For `CCCC[C@@H](NC(=O)[C@@H](CC(=O)O)NC(=O)[C@H](N)Cc1ccccc1)C(=O)N[C@@H](Cc1c[nH]c2ccccc12)C(=O)NNC(=O)[C@H](Cc1ccccc1)NC(=O)CNC(=O)[C@@H](C)NC(=O)[C@@H](N)Cc1ccc(O)cc1` [H-Tyr-D-Ala-Gly-Phe-NH-NH-Trp-D-Nle-D-Asp-D-Phe-H], the IC50 was 5.72 nM.
